We go through 39 compounds from patent US9751854B2 (Millennium Pharmaceuticals, Inc., priority 2014, dated 2017).

pIC50: −log10 of the molar value.

In the first assay the target is human VPS34 (Homo sapiens (Human), UniProt Q8NEB9). Kind of assay: Human VPS34 enzyme assay (Adapta TR-FRET ADP detection). In kind it is biochemical. On the set-up: Percent Inhibition: dose or concentration left out as unconfirmed.
human VPS34, sequence (Q8NEB9 whole entry): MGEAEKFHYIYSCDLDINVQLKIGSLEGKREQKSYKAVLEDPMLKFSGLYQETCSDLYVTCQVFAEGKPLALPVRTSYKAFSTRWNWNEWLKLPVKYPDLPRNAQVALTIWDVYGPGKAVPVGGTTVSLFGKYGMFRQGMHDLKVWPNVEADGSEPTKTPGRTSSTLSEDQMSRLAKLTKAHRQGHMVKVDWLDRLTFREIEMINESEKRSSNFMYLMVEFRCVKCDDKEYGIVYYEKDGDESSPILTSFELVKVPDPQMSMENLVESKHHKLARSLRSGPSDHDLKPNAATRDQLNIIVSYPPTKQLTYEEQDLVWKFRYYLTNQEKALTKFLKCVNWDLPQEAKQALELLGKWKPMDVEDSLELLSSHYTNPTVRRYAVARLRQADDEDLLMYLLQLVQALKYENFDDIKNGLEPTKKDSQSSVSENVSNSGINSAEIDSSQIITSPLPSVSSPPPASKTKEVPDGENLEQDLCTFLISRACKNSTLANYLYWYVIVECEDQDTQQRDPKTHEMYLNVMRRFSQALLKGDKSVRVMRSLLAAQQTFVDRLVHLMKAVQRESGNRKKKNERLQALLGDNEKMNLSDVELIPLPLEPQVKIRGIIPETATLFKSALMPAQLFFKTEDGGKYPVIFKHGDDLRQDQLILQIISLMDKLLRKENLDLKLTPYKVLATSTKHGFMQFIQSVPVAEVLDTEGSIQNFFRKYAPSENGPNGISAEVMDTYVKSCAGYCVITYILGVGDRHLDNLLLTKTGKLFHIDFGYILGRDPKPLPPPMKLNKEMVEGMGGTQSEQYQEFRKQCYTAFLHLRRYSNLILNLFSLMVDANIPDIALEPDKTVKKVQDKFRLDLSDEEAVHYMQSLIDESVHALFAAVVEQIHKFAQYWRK
Conditions: not given
Take `Cc1ncc(-c2ccnc(NC(=O)C3CC3(F)F)c2)cc1NS(=O)(=O)c1ccc(F)cc1F` (single isomer, unassigned) [Compound I-267b, N-(5-{[(2,4-difluorophenyl)sulfonyl]amino}-6-methyl-3,4′-bipyridin-2′-yl)-2,2-difluorocyclopropanecarboxamide]: the “Percent Inhibition” value was determined as 94%.
As for `Cc1ncc(-c2ccnc(NC(=O)C3CC3(F)F)c2)cc1NS(=O)(=O)N(C)C` (single isomer, unassigned) [Compound I-498], the “Percent Inhibition” value is 83%.
On the same count and under the same terms, the figure for `Cc1ncc(-c2ccnc(NC(=O)C3CC3(F)F)c2)cc1NS(=O)(=O)N(C)C` (single isomer, unassigned) [Compound I-499] is greater than 99%; for `CNc1ncc(-c2ccnc(NC(C)=O)c2)cc1NS(=O)(=O)c1ccc(F)cc1F` [Compound I-31, N-[5-{[(2,4-difluorophenyl)sulfonyl]amino}-6-(methylamino)-3,4′-bipyridin-2′-yl)acetamide] it is greater than 99%.

Still in this assay, the particulars now being: IC50 range class.
Regarding `Cc1ncc(-c2ccnc(NC(=O)C3CC3(F)F)c2)cc1NS(=O)(=O)c1ccc(F)cc1F` (racemic) [Compound I-16, (rac)-N-(5-{[(2,4-difluorophenyl)sulfonyl]amino}-6-methyl-3,4′-bipyridin-2′-yl)-2,2-difluorocyclopropanecarboxamide], the pIC50 (usually the IC50 on a negative log10 scale, so that one unit is a factor of ten) is greater than 8.00.
`Cc1ncc(-c2ccnc(NC(=O)C3CC3(F)F)c2)cc1NS(=O)(=O)c1ccc(F)cc1F` (single isomer, unassigned) [Compound I-267a, N-(5-{[(2,4-difluorophenyl)sulfonyl]amino}-6-methyl-3,4′-bipyridin-2′-yl)-2,2-difluorocyclopropanecarboxamide] had a pIC50 of 7.30 to 8.00.
Consider `Cc1ncc(-c2ccnc(NC(=O)C3CC3(F)F)c2)cc1NS(=O)(=O)c1ccc(F)cc1F` (single isomer, unassigned) [Compound I-267b, N-(5-{[(2,4-difluorophenyl)sulfonyl]amino}-6-methyl-3,4′-bipyridin-2′-yl)-2,2-difluorocyclopropanecarboxamide], for which the pIC50 is 7.30 to 8.00.
On to `CC(=O)Nc1cc(-c2cnc(C)c(N3CC(N(C)C)CS3(=O)=O)c2)ccn1` (single isomer, unassigned) [Compound I-496, N-(5-(4-(dimethylamino)-1,1-dioxidoisothiazolidin-2-yl)-6-methyl-[3,4′-bipyridin]-2′-yl)acetamide], for which the pIC50 was 7.30 to 8.00.
For the compound `Cc1ncc(-c2ccnc(NC(=O)C3CC3(F)F)c2)cc1NS(=O)(=O)N(C)C` (single isomer, unassigned) [Compound I-498], the pIC50 was 7.30 to 8.00.
Same read-out and setting: for `Cc1ncc(-c2ccnc(NC(=O)C3CC3(F)F)c2)cc1NS(=O)(=O)N(C)C` (single isomer, unassigned) [Compound I-499] the value was 7.30 to 8.00; for `CC(=O)Nc1cc(-c2cnc(Cl)c(S(=O)(=O)NC(CO)c3ccccc3)c2)ccn1` (stereo in doubt) [Compound I-403, N-(6-chloro-5-{[(1R)-2-hydroxy-1-phenylethyl]sulfamoyl}-3,4′-bipyridin-2′-yl)acetamide], less than 7.00.
The compound `CC(=O)Nc1cc(-c2cnc(C)c(NS(=O)(=O)c3ccc(C(F)(F)F)nc3)c2)ccn1` [Compound I-1] showed a pIC50 greater than 8.00.
Take `CC(=O)Nc1cc(-c2cnc3cnn(S(=O)(=O)C4CC4)c3c2)ccn1` [Compound I-2, N-{4-[1-(cyclopropylsulfonyl)-1H-pyrazolo[4,3-b]pyridin-6-yl]pyridin-2-yl}acetamide]: the pIC50 is 7.30 to 8.00.
As for `CC(=O)Nc1cc(-c2cnc(N)c(S(=O)(=O)Cc3ccc4ccccc4c3)c2)ccn1` [Compound I-3, N-{6-amino-5-[(2-naphthylmethyl)sulfonyl]-3,4′-bipyridin-2′-yl}acetamide], the pIC50 was 7.00 to 7.30.
Same read-out and setting: for `Cc1cnc(NC(=O)C2CC2)cc1-c1cnc(C)c(NS(=O)(=O)c2ccc(F)cc2F)c1` [Compound I-4, N-(5-{[(2,4-difluorophenyl)sulfonyl]amino}-5′,6-dimethyl-3,4′-bipyridin-2′-yl)cyclopropanecarboxamide] the value was 7.30 to 8.00.
As to `CC(=O)Nc1cc(-c2cnc(N)c(S(=O)(=O)Cc3ccccc3)c2)ccn1` [Compound I-6, N-[6-amino-5-(benzylsulfonyl)-3,4′-bipyridin-2′-yl]acetamide], the pIC50 is 7.30 to 8.00.
Still for that read-out and setting: the figure for `CC(=O)Nc1cc(-c2cncc(C(=O)C3CC3)c2)ccn1` [Compound I-8, N-[5-(cyclopropylcarbonyl)-3,4′-bipyridin-2′-yl]acetamide] is less than 7.00; for `CC(=O)Nc1cc(-c2cncc(S(=O)(=O)N3CCC(F)(F)CC3)c2)ccn1` [Compound I-9, N-{5-[(4,4-difluoropiperidin-1-yl)sulfonyl]-3,4′-bipyridin-2′-yl}acetamide] it is 7.30 to 8.00; for `CC(=O)Nc1cc(-c2cnc(N)c(C(=O)N3CCCCC3)c2)ccn1` [Compound I-10, N-[6-amino-5-(piperidin-1-ylcarbonyl)-3,4′-bipyridin-2′-yl]acetamide] it is greater than 8.00.
Still for that read-out and setting: the figure for `CC(=O)Nc1cc(-c2cnc(N)c(S(=O)(=O)NC34CC(C3)C4)c2)ccn1` [Compound I-11, N-[6-amino-5-(bicyclo[1.1.1]pent-1-ylsulfamoyl)-3,4′-bipyridin-2′-yl]acetamide] is greater than 8.00; for `CC(=O)Nc1cc(-c2cncc(NS(=O)(=O)c3ccc(F)cc3F)c2)ccn1` [Compound I-12, N-(5-{[(2,4-difluorophenyl)sulfonyl]amino}-3,4′-bipyridin-2′-yl)acetamide] it is greater than 8.00.
As to `CC(=O)Nc1cc(-c2cncc(NC(=O)c3ccccc3)c2)ccn1` [Compound I-13, N-(2′-acetamido-3,4′-bipyridin-5-yl)benzamide], the pIC50 was less than 7.00.
For `CC(=O)Nc1cc(-c2cnc(N)c(C(=O)NCC3CC3)c2)ccn1` [Compound I-14, 2′-acetamido-6-amino-N-(cyclopropylmethyl)-3,4′-bipyridine-5-carboxamide], the pIC50 was 7.30 to 8.00.
`CC(=O)Nc1cc(-c2cnc(N)c(C(=O)N3CCCC3)c2)ccn1` [Compound I-15, N-[6-amino-5-(pyrrolidin-1-ylcarbonyl)-3,4′-bipyridin-2′-yl]acetamide] gave a pIC50 of 7.30 to 8.00.
As to `CC(=O)Nc1cc(-c2cnc3cc[nH]c3c2)ccn1` [Compound I-17, N-[4-(1H-pyrrolo[3,2-b]pyridin-6-yl)pyridin-2-yl]acetamide], the pIC50 was 7.00 to 7.30.
On to `CC(=O)Nc1cc(-c2cnc(C)c(NS(=O)(=O)c3cn(C)nc3C(F)(F)F)c2)ccn1` [Compound I-18, N-[6-methyl-5-({[1-methyl-3-(trifluoromethyl)-1H-pyrazol-4-yl]sulfonyl}amino)-3,4′-bipyridin-2′-yl]acetamide], for which the pIC50 is greater than 8.00.
In turn, `CC(=O)Nc1cc(-c2cncc(N(C)S(C)(=O)=O)c2)ccn1` [Compound I-20, N-{5-[methyl(methylsulfonyl)amino]-3,4′-bipyridin-2′-yl}acetamide] gave a pIC50 of 7.00 to 7.30.
The same measure, in the same setting: the figure for `CC(=O)Nc1cc(-c2cnc3c(c2)S(=O)(=O)N(C)CN3)ccn1` [Compound I-21, N-[4-(2-methyl-1,1-dioxido-3,4-dihydro-2H-pyrido[2,3-e][1,2,4]thiadiazin-7-yl)pyridin-2-yl]acetamide] is 7.30 to 8.00; for `CNc1ncc(-c2ccnc(NC(C)=O)c2)cc1C(=O)N(C)C` [Compound I-22, 2′-acetamido-N,N-dimethyl-6-(methylamino)-3,4′-bipyridine-5-carboxamide] it is 7.30 to 8.00; for `CC(=O)Nc1cc(-c2cnc3ccn(S(=O)(=O)c4ccccc4)c3c2)ccn1` [Compound I-23, N-{4-[1-(phenylsulfonyl)-1H-pyrrolo[3,2-b]pyridin-6-yl]pyridin-2-yl}acetamide] it is greater than 8.00.
On to `CC(=O)Nc1cc(-c2cnc(N)c(S(=O)(=O)N3CCOCC3)c2)ccn1` [Compound I-24, N-[6-amino-5-(morpholin-4-ylsulfonyl)-3,4′-bipyridin-2′-yl]acetamide], for which the pIC50 was greater than 8.00.
Still for that read-out and setting: for `CC(=O)Nc1cc(-c2cnc(N(C)C)c(NS(=O)(=O)c3ccc(F)cc3F)c2)ccn1` [Compound I-25, N-[5-{[(2,4-difluorophenyl)sulfonyl]amino}-6-(dimethylamino)-3,4′-bipyridin-2′-yl]acetamide] the value was 7.30 to 8.00; for `CCN(c1cc(-c2ccnc(NC(C)=O)c2)cnc1C)S(=O)(=O)C1CC1` [Compound I-26, N-{5-[(cyclopropylsulfonyl)(ethyl)amino]-6-methyl-3,4′-bipyridin-2′-yl}acetamide], 7.00 to 7.30; for `CCN(CC)C(=O)c1cc(-c2ccnc(NC(C)=O)c2)cnc1N` [Compound I-27, 2′-acetamido-6-amino-N,N-diethyl-3,4′-bipyridine-5-carboxamide], greater than 8.00.
Same read-out and setting: the figure for `CC(=O)Nc1cc(-c2cnc(C)c(NS(=O)(=O)c3cc(C)ccc3F)c2)ccn1` [Compound I-28, N-(5-{[(2-fluoro-5-methylphenyl)sulfonyl]amino}-6-methyl-3,4′-bipyridin-2′-yl)acetamide] is greater than 8.00; for `CC(=O)Nc1cc(-c2cnc3c(c2)N(CC2CC2)S(=O)(=O)N3)ccn1` [Compound I-29, N-{4-[1-(cyclopropylmethyl)-2,2-dioxido-1,3-dihydro[1,2,5]thiadiazolo[3,4-b]pyridin-6-yl]pyridin-2-yl}acetamide] it is 7.30 to 8.00.
The same measure, in the same setting: for `CC(=O)Nc1cc(-c2cnc(C)c(NS(=O)(=O)c3ccc(Cl)cc3Cl)c2)ccn1` [Compound I-30, N-(5-{[(2,4-dichlorophenyl)sulfonyl]amino}-6-methyl-3,4′-bipyridin-2′-yl)acetamide] the value was greater than 8.00; for `CNc1ncc(-c2ccnc(NC(C)=O)c2)cc1NS(=O)(=O)c1ccc(F)cc1F` [Compound I-31, N-[5-{[(2,4-difluorophenyl)sulfonyl]amino}-6-(methylamino)-3,4′-bipyridin-2′-yl)acetamide], 7.30 to 8.00.
`CC(=O)Nc1cc(-c2cnc3ccn(S(C)(=O)=O)c3c2)ccn1` [Compound I-33, N-{4-[1-(methylsulfonyl)-1H-pyrrolo[3,2-b]pyridin-6-yl]pyridin-2-yl}acetamide] had a pIC50 of 7.30 to 8.00.
The compound `COC(=O)Nc1cc(-c2cnc(N)c(S(=O)(=O)C(C)C)c2)ccn1` [Compound I-34, methyl [6-amino-5-(isopropylsulfonyl)-3,4′-bipyridin-2′-yl]carbamate] gave a pIC50 greater than 8.00.
`CC(=O)Nc1cc(-c2cnc(N)c(NCC3CC3)c2)ccn1` [Compound I-35, N-{6-amino-5-[(cyclopropylmethyl)amino]-3,4′-bipyridin-2′-yl}acetamide] gave a pIC50 of 7.30 to 8.00.
Consider `COC(=O)Nc1cc(-c2cnc(N)c(S(=O)(=O)N3CCCC3)c2)ccn1` [Compound I-36, methyl [6-amino-5-(pyrrolidin-1-ylsulfonyl)-3,4′-bipyridin-2′-yl]carbamate], for which the pIC50 is greater than 8.00.
For the compound `CC(=O)Nc1cc(-c2cnc(N)c(S(=O)(=O)N(C)c3ccccc3)c2)ccn1` [Compound I-37, N-{6-amino-5-[methyl(phenyl)sulfamoyl]-3,4′-bipyridin-2′-yl}acetamide], the pIC50 was greater than 8.00.
